Laboratory results from patent publication US12533340B2, “Treatment of autoimmune disease in a patient receiving additionally a beta-blocker” (NOVARTIS AG, priority 2015, dated 2026).

Legend:
healthy volunteers [1] = assay: Clinical trial: effect on heart rate (EmaxHR) from 12-lead Holter ECG recordings; format: in vivo, human; settings: for mean EmaxHR (maximum change from baseline in time matched, hourly average HR): Day 10, monotherapy at steady state, siponimod 2 mg qd after titration or propranolol 80 mg LA qd, placebo 11.73 bpm
Description: (§1) Healthy volunteers (men and women) aged between 18 and 55 years with a body mass index of 18-30 kg/m^2 were included in the study. Subjects were required to have an FEV1 of ≥90% of predicted normal, a systolic blood pressure (BP) of 90-140 mm Hg, a diastolic BP of 50-90 mm Hg and a pulse rate of 50-90 bpm. Women of childbearing potential, pregnant or lactating women, homozygous carriers for CYP2C9*3 genotype, smokers, those with current or medical history of cardiovascular disorders or bronchospastic disease were excluded from this study. At screening, a 24 h Holter recording was performed on all subjects to exclude those with any significant arrhythmia.
This was a double-blind, randomised, placebo-controlled study consisting of the following periods: screening (28 days), baseline evaluation (2 days), treatment (20 days) and study completion evaluation (approximately 10 days after the last drug administration; FIG. 1). Eligible subjects were domiciled for 22 days, starting approximately 36 h before dosing until 24 h post-dose after Day 20. The baseline evaluations were performed on Day −2 or Day −1. Subjects were randomised to one of the four treatment groups (A, B, C and D) in a ratio of 1:1:1:1. […] In Group A, treatment was initiated with the siponimod dose-titration regimen (Days 1-6) followed by siponimod 2 mg (Days 7-20). Siponimod was uptitrated by one administration of 0.25 mg siponimod on day 1, one administration of 0.25 mg siponimod on day 2, one administration of 0.5 mg siponimod on day 3, one administration of 0.75 mg siponimod on day 4, one administration of 1.25 mg siponimod on day 5 and one administration of 2 mg siponimod on day 6, followed by a steady dose of 2 mg siponimod qd thereafter. […] These subjects concomitantly received siponimod-placebo (Days 1-10), followed by the siponimod dose-titration regimen (Days 11-16) and siponimod 2 mg (Days 17-20). […]
(§2) The HR and bradyarrhythmias were evaluated from the 12-Lead Holter electrocardiogram (ECG) recordings. […] The hourly average HR in each post-dose hour was calculated from the 60 intervals of per minute HR data. […]

healthy volunteers [2] = assay: Clinical trial: bradyarrhythmias (AVBs, sinus pauses) from 24 h post-dose Holter evaluation; format: in vivo, human
Description: as §1
This was a double-blind, randomised, placebo-controlled study consisting of the following periods: screening (28 days), baseline evaluation (2 days), treatment (20 days) and study completion evaluation (approximately 10 days after the last drug administration; FIG. 1). Eligible subjects were domiciled for 22 days, starting approximately 36 h before dosing until 24 h post-dose after Day 20. […]
as §2
The cardiac rhythm was evaluated from the 24 h post-dose Holter evaluation as mentioned earlier. […]

[3] = deduced on the basis of previous reports (Legangneux 2013, Murdoch 1991); cited from earlier work

Structure (SMILES)	mean EmaxHR (maximum change from baseline in time matched, hourly average HR) (healthy volunteers [1])	episodes of Mobitz I AVB (healthy volunteers [2]; propranolol only treatment)	mean difference in EmaxHR, siponimod alone versus propranolol alone (healthy volunteers [1]; Day 10, 95% CI -4.98, 2.87, P=0.595)	episodes of second-degree AVBs or SPs of >3 seconds duration (healthy volunteers [2]; 24 h Holter on the evaluation days)	time to reach a pharmacokinetic steady state [3]
CC(C)NCC(O)COc1cccc2ccccc12 (stereo not drawn) [propranolol, reference compound]	17.85 bpm	Two	–	–	–
CCc1cc(/C(C)=N/OCc2ccc(C3CCCCC3)c(C(F)(F)F)c2)ccc1CN1CC(C(=O)O)C1 [siponimod, 1-{4-[1-((E)-4-cyclohexyl-3-trifluoromethyl-benzyloxyimino)-ethyl]-2-ethyl-benzyl}-azetidine-3-carboxylic acid]	16.79 bpm	–	−1.06 bpm	no episodes	approximately 10 days
